Measurements taken from patent US20120214862A1, “MODULATION OF FACTOR 7 EXPRESSION” (ISIS Pharmaceuticals, Inc., priority 2009, published 2012).
Where two headings read alike, the source gives them in different places. One block for each compound: values may come before it. In the oligonucleotide strings, read from the 5' end, every base follows the letter of its sugar. An asterisk marks phosphorothioate; unmarked linkages are phosphodiester. Other units and linkages are bracketed, terminal groups are in braces. A string of capitals states the bases alone. e = 2'-O-(2-methoxyethyl) (MOE); [5mC] = 5-methylcytosine; d = 2'-deoxy (DNA)

Legend:
[1] = tested on: human Factor 7 mRNA; assay: Dose-dependent antisense inhibition of human Factor 7 in HepB3 cells, transfection with electroporation; format: cell-based
Summary of the method: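 HepB3 cells, 20,000/well, electroporated with gapmers at 3.125–100 μM; about 16 h treatment. Factor 7 mRNA by qRT-PCR with primer probe set RTS 2927, normalized to RIBOGREEN total RNA; percent inhibition versus untreated cells.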

[2] = tested on: human Factor 7 mRNA; assay: Antisense inhibition of human Factor 7 mRNA in HepB3 cells, lipofectin, 50 nM, real-time RT-PCR; format: cell-based; details: HepB3 cells; gapmers (5-10-5, 3-14-3, 2-13-5 MOE) targeted to nucleobases 4868 to 4899 of SEQ ID NO: 1
Summary of the method: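 HepB3 cells were transfected by lipofectin with 50 nM antisense oligonucleotide and harvested after about 24 h. Factor 7 mRNA was measured by real-time RT-PCR (primer probe set RTS 2927 in some runs), normalized to RIBOGREEN total RNA, and reported as percent inhibition versus untreated control.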

[3] = tested on: human Factor 7 mRNA; assay: Dose-dependent antisense inhibition of human Factor 7 in HepB3 cells, transfection with lipofectin; format: cell-based; details: lipofectin, HepB3 cells, 16 hours
Summary of the method: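 HepB3 cells (4,000/well) lipofectin-transfected with antisense oligonucleotide at 3.125 or 6.25 up to 100 nM for ~16 h. Factor 7 mRNA measured by real-time RT-PCR with primer probe set RTS 2927, adjusted to RIBOGREEN total RNA; expressed as percent inhibition versus untreated control cells.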

[4] = tested on: BALB/c mice; details: mouse, in vivo; for Blood: BALB/c, 30 min
[5] = tested on: platelet factor-4 (PF-4); assay: FeCl3 induced venous thrombosis (VT) model, real-time RT-PCR quantification of PF-4 in vena cava as measure of thrombus formation; format: in vivo, mouse; details: for PF-4 (percent of PF-4 mRNA as compared to the PBS + FeCl3 control) / PF-4 (percentage compared to PBS controls): BALB/c mice; for PF-4 (percent of PF-4 mRNA as compared to the PBS + FeCl3 control): no ISIS 403102; for PF-4 (percentage compared to PBS controls): vena cava
Procedure: (§1) Two control groups of BALB/c mice were treated with PBS, administered subcutaneously twice a week for 3 weeks. Thrombus formation was induced with FeCl3 in half of the mice while the rest of the mice were assayed for tail bleeding. […] Thrombus formation was induced with FeCl3 in all groups of the VT mice except the first control group.
(§2) In mice undergoing FeCl3 treatment, thrombus formation was induced by applying a piece of filter paper (2×4 min) pre-saturated with 10% FeCl3 solution directly on the vena cava. After 3 minutes of exposure, the filter paper was removed. Thirty minutes after the filter paper application, a fixed length of the vein containing the thrombus was dissected out for platelet analysis. Liver was collected for RNA analysis.
(§3) Real-time RT-PCR quantification of platelet factor-4 (PF-4) was used to quantify platelets in the vena cava as a measure of thrombus formation.
(§4) Six additional groups of BALB/c mice was treated with 0.5 mg/kg, 1 mg/kg, 2 mg·kg, 3 mg/kg, 4 mg/kg, or 5 mg/kg of warfarin, administered intraperioneally daily for 6 days. Four hours after the last dose of warfarin, mice were sacrificed. A control group of BALB/c mice were treated with PBS, administered subcutaneously twice a week for 3 weeks. Two days after the last dose of PBS, mice were anesthetized with 150 mg/kg ketamine mixed with 10 mg/kg xylazine administered by intraperitoneal injection. Thrombus formation was induced with FeCl3 in groups of mice except the first control group.
as §2, with “mm)” for “min)”
as §3
Thrombus formation was induced with FeCl3 in all of the mice except the first […] control groups. All mice were anesthetized with 150 mg/kg of ketamine mixed with 10 mg/kg of xylazine administered by intraperitoneal injection.
After 3 minutes of exposure, the filter paper was removed. Thirty minutes after the filter paper application, a fixed length of the vein containing the thrombus was dissected out for platelet analysis.
Real-time PCR quantification of PF-4 was used to quantify platelets in the vena cava as a measure of thrombus formation. […] Data is presented as percent of PF-4 mRNA as compared to the PBS+ FeCl3 control, […]

[6] = tested on: murine Factor 7 mRNA; assay: Liver Factor 7 mRNA by real-time RT-PCR in treated BALB/c mice; format: in vivo, mouse
Procedure: A control group of mice was injected subcutaneously with PBS twice a week for 3 weeks. After the treatment period, whole liver was collected for RNA and protein analysis, and plasma was collected for clotting analysis (PT/aPTT).
(§5) RNA was extracted from liver tissue for real-time RT-PCR analysis of Factor 7.
A control group of 3 mice was injected with a single dose of PBS, and mice in this group were sacrificed on day 1. Mice in all groups were sacrificed by cervical dislocation following anesthesia with 150 mg/kg ketamine mixed with 10 mg/kg xylazine administered by intraperitoneal injection. Liver was harvested for RNA analysis and plasma was collected for clotting analysis (PT and aPTT).
as §5
Mice from the first group were sacrificed on days 1 and 3 after the single dose. […] A control group of 3 mice was injected with PBS in a single dose. Mice from the control group were sacrificed 1 day later. Mice in all groups were sacrificed by cervical dislocation following anesthesia with 150 mg/kg ketamine mixed with 10 mg/kg xylazine administered by intraperitoneal injection. Liver was harvested for RNA analysis and plasma was collected for clotting analysis (PT and aPTT) for mice in all groups.
RNA was extracted from liver tissue for quantitative RT-PCR analysis of Factor 7.
as §1, §5
as §4, with “A fifth group” for “Six additional groups”, “with” for “with 0.5 mg/kg, 1 mg/kg, 2 mg·kg,”, “3” for “3 mg/kg, 4 mg/kg, or 5”

[7] = tested on: BALB/c mice; assay: Tail bleeding assay; details: for Blood: BALB/c mice, blood collected over 40 minutes, PBS 0.06

Compound: 422296 (antisense e[5mC]*e[5mC]*dG*dA*dG*dT*dT*d[5mC]*dT*dG*d[5mC]*dA*dG*dG*dA*eG*e[5mC]*eG*eG*e[5mC]) [compound 422296]
percent inhibition of Factor 7 mRNA, relative to untreated control cells ([1]; 3.125 μM, 16 hours (Example 7, Table 15)): 62%
percent inhibition of Factor 7 mRNA, relative to untreated control cells ([1]; 3.125 μM, 16 hours (Example 8, Table 16)): 47%
percent inhibition of Factor 7 mRNA, relative to untreated control cells ([1]; 6.25 μM, 16 hours (Example 7, Table 15)): 40%
percent inhibition of Factor 7 mRNA, relative to untreated control cells ([1]; 6.25 μM, 16 hours (Example 8, Table 16)): 44%
percent inhibition of Factor 7 mRNA, relative to untreated control cells ([1]; 12.5 μM, 16 hours (Example 7, Table 15)): 56%
percent inhibition of Factor 7 mRNA, relative to untreated control cells ([1]; 12.5 μM, 16 hours (Example 8, Table 16)): 70%
percent inhibition of Factor 7 mRNA, relative to untreated control cells ([1]; 25 μM, 16 hours (Example 7, Table 15)): 56%
percent inhibition of Factor 7 mRNA, relative to untreated control cells ([1]; 25 μM, 16 hours (Example 8, Table 16)): 78%
percent inhibition of Factor 7 mRNA, relative to untreated control cells ([1]; 50 μM, 16 hours (Example 7, Table 15)): 82%
percent inhibition of Factor 7 mRNA, relative to untreated control cells ([1]; 50 μM, 16 hours (Example 8, Table 16)): 80%
percent inhibition of Factor 7 mRNA, relative to untreated control cells ([1]; 100 μM, 16 hours (Example 7, Table 15)): 84%
percent inhibition of Factor 7 mRNA, relative to untreated control cells ([1]; 100 μM, 16 hours (Example 8, Table 16)): 82%
% Inhibition of human Factor 7 mRNA levels [2]: 74%
percent inhibition of Factor 7 mRNA, relative to untreated control cells ([3]; 3.125 nM): 21%
percent inhibition of Factor 7 mRNA, relative to untreated control cells ([3]; 12.5 nM): 39%
percent inhibition of Factor 7 mRNA, relative to untreated control cells ([3]; 25 nM): 67%
percent inhibition of Factor 7 mRNA, relative to untreated control cells ([3]; 50 nM): 78%
percent inhibition of Factor 7 mRNA, relative to untreated control cells ([3]; 100 nM): 82%
percent inhibition of Factor 7 mRNA, relative to untreated control cells [3]: 27%

Blood ([4]; ip, 5 mg/kg): 0.22 g
Blood ([4]; ip, 10 mg/kg): 0.58 g
Blood ([4]; sc, 10 mg/kg): 0.04 g
bleeding compared to PBS treated mice ([4]; ip, 10 mg/kg): increased bleeding
bleeding compared to PBS treated mice ([4]; sc, 10 mg/kg): less bleeding than PBS mice
Compound: COc1ccc(-n2nc(C(N)=O)c3c2C(=O)N(c2ccc(N4CCCCC4=O)cc2)CC3)cc1 [Apixaban, reference compound]
bleeding compared to PBS treated mice ([4]; ip, 5 mg/kg): same amount of bleeding as PBS treated mice

Compound: COC(=O)[C@H](c1ccccc1Cl)N1CCc2sccc2C1 [Plavix, clopidogrel, reference compound]
PF-4 (percent of PF-4 mRNA as compared to the PBS + FeCl3 control) ([5]; FeCl3, Plavix 6.25 mg/kg): 61%
PF-4 (percent of PF-4 mRNA as compared to the PBS + FeCl3 control) ([5]; FeCl3, Plavix 12.50 mg/kg): 24%
PF-4 (percent of PF-4 mRNA as compared to the PBS + FeCl3 control) ([5]; FeCl3, Plavix 25.00 mg/kg): 13%
PF-4 (percent of PF-4 mRNA as compared to the PBS + FeCl3 control) ([5]; FeCl3, Plavix 50.00 mg/kg): 6%
PF-4 in comparison to the PBS control ([5]; Example 22, Plavix 6.25-50.00 mg/kg, three doses over two days): reduction of PF-4

Compound: CC(=O)CC(c1ccccc1)c1c(O)c2ccccc2oc1=O (stereo not shown) [warfarin, reference compound]
reduction of Factor 7 mRNA as compared to the PBS control ([6]; Example 15, 3 mg/kg intraperitoneally daily for 6 days): did not result in significant reduction
% inhibition of Factor 7 mRNA ([6]; liver, BALB/c mice, FeCl3 VT model, 3 mg/kg i.p. daily for 6 days, relative to PBS control): 10%
PF-4 in comparison to the PBS control ([5]; Example 16, dose of 1 mg/kg and higher, intraperitoneally daily for 6 days): reduction of PF-4
PF-4 (percentage compared to PBS controls) ([5]; FeCl3, 0.5 mg/kg i.p. daily for 6 days): 165%
PF-4 (percentage compared to PBS controls) ([5]; FeCl3, 1 mg/kg i.p. daily for 6 days): 63%
PF-4 (percentage compared to PBS controls) ([5]; FeCl3, 2 mg/kg i.p. daily for 6 days): 47%
PF-4 (percentage compared to PBS controls) ([5]; FeCl3, 3 mg/kg i.p. daily for 6 days): 35%
PF-4 (percentage compared to PBS controls) ([5]; FeCl3, 4 mg/kg i.p. daily for 6 days): 22%
PF-4 (percentage compared to PBS controls) ([5]; FeCl3, 5 mg/kg i.p. daily for 6 days): 0%
Blood ([7]; 0.5 mg/kg i.p. daily for 6 days): 0.16 g
Blood ([7]; 1 mg/kg i.p. daily for 6 days): 0.28 g
Blood ([7]; 2 mg/kg i.p. daily for 6 days): 0.58 g
Blood ([7]; 3 mg/kg i.p. daily for 6 days): 0.78 g
Blood ([7]; 4 mg/kg i.p. daily for 6 days): 0.66 g
Blood ([7]; 5 mg/kg i.p. daily for 6 days): 0.93 g
bleeding as compared to PBS control mice ([7]; Example 17, 0.5-5 mg/kg intraperitoneally daily for 6 days): did increase bleeding
